# Where a name gives a salt, the structure may show the parent alone.
# Legend:
# [1] = Fluorescence quantum yield; type: physicochemical; conditions: physiological conditions; standard quinine sulfate (Φ = 0.55)
# Description: The fluorescence quantum yield is defined as the ratio of the number of photons emitted to the number of photons absorbed, which is a key parameter in fluorescence spectroscopy that describes the efficiency of the fluorescence process. The fluorescence quantum yields (Φ) of HN-241 and HN-241 sulfate were measured using quinine sulfate in 50 mM aqueous H2SO4 (Φ = 0.55) as the standard, and calculated according to the following Equation (1). (1) Yu=Ys × Fu × As/Fs × Au
# “A” represents the absorbance at the excitation wavelength, “F” denotes the integral fluorescence intensity, and the subscripts “s” and “u” refer to the standard and sample, respectively.
# [2] = test system: hSULT1As; assay: O-sulfation and spectroscopic changes with hSULT1As (statements for all isoforms together); type: biochemical, human; conditions: substrate 10 μM, all tested hSULT1A isozymes
# Description: (§1) The incubation system consisted of Tris-HCl buffer (pH 7.4, 50 mM), MgCl2 (5 mM), DTT (200 μM), recombinant hSULT1As (29 pmol), and each fluorophore or 4-HN derivative (10 μM). After pre-incubation at 37 °C for 3 min, the reaction was initiated by adding an excess of PAPS (200 μM). Following 1 h incubation, the reaction was terminated with the addition of an equal volume of ice-cold acetonitrile. After centrifugation at 20,000× g for 20 min at 4 °C, the supernatant was collected for HPLC analysis. The mobile phase consisted of 10 mM aqueous ammonium acetate (A) and acetonitrile (B) at a flow rate of 0.4 mL/min. Gradient elution was performed under the following conditions: 0–2.0 min, 5% B; 2.0–10.0 min, 5–95% B; 10.0−12.0 min, 95% B; 12.0–12.5 min, 95–5% B; and 12.5–15.0 min, 5% B.
# The spectroscopic changes in these fluorophores following O-sulfation were investigated. The incubation system was the same as that used in Section 2.3. The emission spectra of eight fluorophores in the presence and absence of three hSULT1A isoforms were determined using BioTek Synergy H1.
# [3] = molecular target: T1, hSULT1A1 (Homo sapiens, UniProt P50225); assay: Enzymatic kinetics of hSULT1A1-catalyzed HN-241 4-O-sulfation; type: biochemical
# T1 construct: 6-histidine tag (N); TEV site (N); made in house; host or cells: Escherichia coli BL21 (DE3), pET29a(+)
# T1 sequence (P50225 whole entry): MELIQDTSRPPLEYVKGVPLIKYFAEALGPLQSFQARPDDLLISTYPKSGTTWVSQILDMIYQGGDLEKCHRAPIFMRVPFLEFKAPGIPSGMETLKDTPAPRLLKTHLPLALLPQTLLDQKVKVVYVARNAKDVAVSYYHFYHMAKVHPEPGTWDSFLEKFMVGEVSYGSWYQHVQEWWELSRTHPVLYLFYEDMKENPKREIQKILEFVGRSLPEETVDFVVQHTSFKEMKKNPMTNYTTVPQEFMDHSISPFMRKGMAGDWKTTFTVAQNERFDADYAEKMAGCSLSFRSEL
# Description: (§2) The enzymatic kinetic parameters of hSULT1As-catalyzed HN-241 4-O-sulfation were measured by incubating increasing concentrations of HN-241 with each of the hSULT1As for a certain period. The fitting equations included Equation (2), the Michaelis–Menten equation, and Equation (3) for enzyme kinetics with substrate inhibition. Related kinetic parameters were fitted by GraphPad Prism 8.0 (San Diego, CA, USA). (2) V=Vmax × [S]/Km+[S] (3) V=Vmax × [S]/Km+[S](1+[S]/Ki)
# (§3) [S] refers to the concentration of HN-241, Vmax is the maximum rate of hSULT1As-catalyzed HN-241 4-O-sulfation, Km is the substrate concentration at the half Vmax, and Ki represents the dissociation constant for the binding of the substrate to the inhibitory site.
# [4] = molecular target: T2, hSULT1A2 (Homo sapiens, UniProt P50226); assay: Enzymatic kinetics of hSULT1A2-catalyzed HN-241 4-O-sulfation; type: biochemical
# T2 construct: 6-histidine tag (N); TEV site (N); made in house; host or cells: Escherichia coli BL21 (DE3), pET29a(+)
# T2 sequence (P50226 whole entry): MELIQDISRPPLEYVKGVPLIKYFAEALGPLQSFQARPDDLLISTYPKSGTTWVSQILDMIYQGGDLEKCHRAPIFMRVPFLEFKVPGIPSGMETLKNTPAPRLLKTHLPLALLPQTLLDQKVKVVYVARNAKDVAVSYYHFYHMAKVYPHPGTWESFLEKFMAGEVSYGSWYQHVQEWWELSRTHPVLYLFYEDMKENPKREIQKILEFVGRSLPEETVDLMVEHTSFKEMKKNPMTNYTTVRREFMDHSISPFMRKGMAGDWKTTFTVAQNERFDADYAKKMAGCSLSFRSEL
# Description: as §2, §3
# [5] = molecular target: T3, hSULT1A3 (Homo sapiens, UniProt P0DMM9); assay: Enzymatic kinetics of hSULT1A3-catalyzed HN-241 4-O-sulfation; type: biochemical
# T3 construct: 6-histidine tag (N); TEV site (N); made in house; host or cells: Escherichia coli BL21 (DE3), pET29a(+)
# T3 sequence (P0DMM9 whole entry): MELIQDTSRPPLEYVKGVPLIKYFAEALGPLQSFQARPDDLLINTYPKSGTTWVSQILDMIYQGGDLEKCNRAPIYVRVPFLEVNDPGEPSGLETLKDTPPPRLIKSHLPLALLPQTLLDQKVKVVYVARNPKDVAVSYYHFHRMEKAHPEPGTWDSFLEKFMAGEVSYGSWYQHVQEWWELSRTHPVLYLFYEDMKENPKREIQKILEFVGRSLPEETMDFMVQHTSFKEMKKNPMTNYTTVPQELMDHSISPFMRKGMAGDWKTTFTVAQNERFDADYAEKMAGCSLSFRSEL
# Description: as §2, §3
# [6] = test system: hSULT1As; design: method as in PMID 12264750, PMID 35713964, PMID 6786543; conditions: ascorbic acid as competitive inhibitor of hSULT1As; ref [13],[14],[15]; cited from earlier work
# [7] = molecular target: T1, hSULT1A1; assay: hSULT1As reaction phenotyping assay (HPLC), hSULT1A1; type: biochemical; conditions: fluorophore 10 μM, PAPS 200 μM, 1 h, 37 °C
# Description: as §1
# [8] = molecular target: T2, hSULT1A2; assay: hSULT1As reaction phenotyping assay (HPLC), hSULT1A2; type: biochemical; conditions: fluorophore 10 μM, PAPS 200 μM, 1 h, 37 °C
# Description: as §1
# [9] = molecular target: T3, hSULT1A3; assay: hSULT1As reaction phenotyping assay (HPLC), hSULT1A3; type: biochemical; conditions: fluorophore 10 μM, PAPS 200 μM, 1 h, 37 °C
# Description: as §1
Fluorescence quantum yield (Φ) [1],SMILES,O-sulfation by hSULT1As (in words) [2],"Sulfation rate: peak area of the sulfated metabolite detected by HPLC, hSULT1A1 [7]","Sulfation rate: peak area of the sulfated metabolite detected by HPLC, hSULT1A2 [8]","Sulfation rate: peak area of the sulfated metabolite detected by HPLC, hSULT1A3 [9]",also measured
0.86,CCN1C(=O)c2cccc3c(OS(=O)(=O)O)ccc(c23)C1=O [HN-241 sulfate],,,,,
0.02,"CCN1C(=O)c2cccc3c(O)ccc(c23)C1=O [HN-241, 4-hydroxy-N-ethyl-1,8-naphthalimide]",highest O-sulfation rate,,,,"Clint ([3]; HN-241 4-O-sulfation): 24,265.93 μL/min/mg Protein; Ki ([3]; substrate inhibition constant of HN-241 (binding of substrate to the inhibitory site)): 1.37 ± 0.4 µM; Clint ([4]; hSULT1A2): 1440.94 μL/min/mg Protein; Vmax ([4]; hSULT1A2, Michaelis–Menten kinetics): 6441.00 pmol/min/mg Protein; Clint ([5]; hSULT1A3): 683.26 μL/min/mg Protein; Vmax ([5]; hSULT1A3, Michaelis–Menten kinetics): 8814.00 pmol/min/mg Protein"
,O=C1O[C@H]([C@@H](O)CO)C(O)=C1O [ascorbic acid],,,,,Boost of the bioavailability of ethinylestradiol [6]: approximately 50%
,"CCCCN1C(=O)c2cccc3c(O)ccc(c23)C1=O [fluorophore B, 4-hydroxy-N-butyl-1,8-naphthalimide]",,"++ (“++” and “+++” denote ranges from 10,000 to 50,000, and greater than 50,000, respectively)","++ (“++” and “+++” denote ranges from 10,000 to 50,000, and greater than 50,000, respectively)","++ (“++” and “+++” denote ranges from 10,000 to 50,000, and greater than 50,000, respectively)",
,CC1(C)OC(=C(C#N)C#N)C(C#N)=C1/C=C/c1cc2ccc(O)cc2oc1=O [fluorophore E],,"+ (“+” shows the peak area of the sulfated metabolites of each fluorophore detected by HPLC, ranging from 0 to 10,000)","+++ (“++” and “+++” denote ranges from 10,000 to 50,000, and greater than 50,000, respectively)","+++ (“++” and “+++” denote ranges from 10,000 to 50,000, and greater than 50,000, respectively)",
,CC[n+]1ccc(/C=C/c2ccc(-c3ccc(O)cc3)s2)c2ccccc21 [fluorophore H],highest O-sulfation rate,"+++ (“++” and “+++” denote ranges from 10,000 to 50,000, and greater than 50,000, respectively)","++ (“++” and “+++” denote ranges from 10,000 to 50,000, and greater than 50,000, respectively)","+++ (“++” and “+++” denote ranges from 10,000 to 50,000, and greater than 50,000, respectively)",

# — publication PMC11202169, “A Novel Fluorescence-Based Microplate Assay for High-Throughput Screening of hSULT1As Inhibitors” (Biosensors, 2024)
